Consider 33 compounds from US20150141433A1, “N-ARYLMETHYL SULFONAMIDE NEGATIVE MODULATORS OF NR2A” (Mnemosyne Pharmaceuticals, Inc., priority 2013, published 2015).

The structures appear in SMILES notation. Read-outs that look alike come from different tables or passages of the source.

The target in this assay is T1, NR1/NR2A (Homo sapiens, UniProt Q05586+Q12879).
T1 construct: host or cells: HEK293 (tetracycline-inducible NR2A expression)
The experiment in a line: FDSS Ca2+ influx inhibition assay in HEK293 cells expressing NR1/NR2A. Type of assay: cell-based. The method, then:
Cell Culture and plating: HEK293 cells expressing NR1/NR2A (Chantest, Cleveland, Ohio) were grown to 70-80% confluency as an adherent monolayer in standard tissue culture flasks at 37° C., 5% CO2 per supplier's instructions.
After induction, cell culture medium was removed and cells were rinsed once with Ca^2+ and Mg^2+-free Dulbecco's phosphate buffered saline. Cells were then removed from the flask using TrypLE™ Express (Life Technologies) according to the manufacturer's instructions and collected to 50 ml centrifuge tubes. Following two washes in Ca^27 Mg^2′-free HBSS with 20 mM HEPES (HHnoCa), cells were counted and viability assessed using trypan blue. To load cells with Ca^2′-sensitive dye, they were resuspended in fluo-8 plus Component B (AAT Bioquest Products) diluted in HHnoCa and incubated 15 minutes at 37° C., followed by 30 minutes at room temp (in dark). Cells were then washed and resuspended in HHnoCa to remove extracellular dye and plated in 384-well plates (Falcon, uncoated) at 20,000-30,000 cells/well in a final volume of 25 μL/well.
FDSS Assay: To each well of the plate, 10 μLtest compound, control (MK801) or HHnoCa buffer was added to a final concentration of 10 μM with a final concentration of DMSO of 0.1%. Following 10 minutes pre-incubation in the dark, plates are loaded onto the Hamamatsu FDSS 6000. After collecting baseline fluorescence images, 3 μM glutamate, 3 μM glycine, and 1 mM Ca^2+ in HHnoCa buffer is added to each well, and Ca^2+ is recorded for 3 minutes. Data were processed by computing ratio of fluorescence at the end of data collection to baseline fluorescence to assess degree of Ca^2+ influx inhibition relative to that observed in MK801.

Setting [1] is: 3 μM glutamate, 3 μM glycine, 1 mM Ca2+, Ca2+ influx inhibition relative to MK801, read-out: NR2A IC50.
Setting [2] is: binned NR2A inhibition concentration, read-out: Binned Activity.

T1 sequence (Q12879 23-1464, other chains not shown): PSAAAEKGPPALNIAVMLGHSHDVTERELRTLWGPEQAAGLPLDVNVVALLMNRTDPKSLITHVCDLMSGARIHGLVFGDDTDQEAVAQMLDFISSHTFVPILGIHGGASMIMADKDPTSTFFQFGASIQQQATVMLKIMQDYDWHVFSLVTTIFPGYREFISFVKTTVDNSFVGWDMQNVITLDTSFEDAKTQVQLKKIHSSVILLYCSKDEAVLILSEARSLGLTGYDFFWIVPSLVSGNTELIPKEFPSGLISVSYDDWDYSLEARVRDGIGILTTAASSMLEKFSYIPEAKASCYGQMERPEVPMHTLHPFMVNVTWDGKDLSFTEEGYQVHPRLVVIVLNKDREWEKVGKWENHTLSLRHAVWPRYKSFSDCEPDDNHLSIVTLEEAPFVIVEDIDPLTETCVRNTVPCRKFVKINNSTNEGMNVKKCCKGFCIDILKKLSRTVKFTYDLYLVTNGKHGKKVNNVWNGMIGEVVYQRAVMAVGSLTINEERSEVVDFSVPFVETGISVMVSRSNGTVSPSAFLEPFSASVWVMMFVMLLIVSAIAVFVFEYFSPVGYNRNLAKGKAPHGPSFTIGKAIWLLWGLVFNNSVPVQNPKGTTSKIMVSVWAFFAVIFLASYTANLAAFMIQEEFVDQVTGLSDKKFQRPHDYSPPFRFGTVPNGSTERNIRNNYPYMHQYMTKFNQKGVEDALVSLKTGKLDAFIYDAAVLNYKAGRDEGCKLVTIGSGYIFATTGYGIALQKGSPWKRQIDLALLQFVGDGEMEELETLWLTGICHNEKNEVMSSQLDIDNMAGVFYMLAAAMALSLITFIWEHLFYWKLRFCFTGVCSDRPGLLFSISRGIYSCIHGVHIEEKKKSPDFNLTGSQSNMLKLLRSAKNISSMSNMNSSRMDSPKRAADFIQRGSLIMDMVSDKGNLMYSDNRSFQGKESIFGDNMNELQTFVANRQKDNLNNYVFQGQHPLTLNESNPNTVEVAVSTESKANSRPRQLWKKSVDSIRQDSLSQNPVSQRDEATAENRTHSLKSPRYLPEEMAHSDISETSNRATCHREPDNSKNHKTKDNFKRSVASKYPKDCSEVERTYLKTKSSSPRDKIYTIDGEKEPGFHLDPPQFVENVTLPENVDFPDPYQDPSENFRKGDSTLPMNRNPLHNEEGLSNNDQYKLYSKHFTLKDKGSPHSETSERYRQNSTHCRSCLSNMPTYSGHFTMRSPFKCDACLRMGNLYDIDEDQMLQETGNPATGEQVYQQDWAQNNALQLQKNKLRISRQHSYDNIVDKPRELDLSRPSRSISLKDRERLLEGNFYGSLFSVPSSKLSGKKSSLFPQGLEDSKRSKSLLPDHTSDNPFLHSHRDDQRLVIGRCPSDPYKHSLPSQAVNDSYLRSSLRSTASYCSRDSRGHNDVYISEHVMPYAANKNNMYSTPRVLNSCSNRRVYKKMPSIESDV

`O=C(NCc1cnccn1)c1ccc(CNS(=O)(=O)c2ccc(F)c(Cl)c2)cn1` [5-(3-chloro-4-fluorobenzenesulfon-amidomethyl)-N-(pyrazin-2-ylmethyl)pyridine-2-carboxamide]: the IC50 under setting [1] is 1.69 µM. Same read-out and setting: the value for `O=C(NCc1cncnc1)c1ccc(CNS(=O)(=O)c2ccc(F)c(Cl)c2)cn1` [5-(3-chloro-4-fluorobenzenesulfon-amidomethyl)-N-(pyrimidin-5-ylmethyl)pyridine-2-carboxamide] was 7.39 µM; that for `O=C(NCc1nccs1)c1ccc(CNS(=O)(=O)c2ccc(F)c(Cl)c2)cn1` [5-(3-chloro-4-fluorobenzenesulfon-amidomethyl)-N-(1,3-thiazol-2-ylmethyl)pyridine-2-carboxamide] was 9.13 µM. Same read-out and setting: the value for `Cc1ncc(CNC(=O)c2ccc(CNS(=O)(=O)c3cccc(Cl)c3)cn2)s1` [5-(3-chlorobenzenesulfon-amidomethyl)-N-[(2-methyl-1,3-thiazol-5-yl)methyl]pyridine-2-carboxamide] was 1.04 µM; that for `CC(NC(=O)c1ccc(CNS(=O)(=O)c2ccc(F)c(Cl)c2)cn1)c1ccco1` (stereo not shown) [5-(3-chloro-4-fluorobenzenesulfon-amidomethyl)-N-[1-(furan-2-yl)ethyl]pyridine-2-carboxamide] was 5.51 µM; that for `Cc1ncc(CNC(=O)c2cnc(CNS(=O)(=O)c3ccc(F)cc3)c(C)n2)s1` [5-(4-fluorobenzenesulfon-amidomethyl)-6-methyl-N-[(2-methyl-1,3-thiazol-5-yl)methyl]pyrazine-2-carboxamide] was 0.137 µM. `Cc1ccncc1CNC(=O)c1ccc(CNS(=O)(=O)c2ccc(F)c(Cl)c2)cn1` [5-(3-chloro-4-fluorobenzenesulfon-amidomethyl)-N-[(4-methylpyridin-3-yl)methyl]pyridine-2-carboxamide]: the IC50 under setting [1] was determined as 0.187 µM. In the case of `Cc1ccncc1CNC(=O)c1ccc(CNS(=O)(=O)c2ccc(F)c(Cl)c2)nc1` [6-(3-chloro-4-fluorobenzenesulfon-amidomethyl)-N-[(4-methylpyridin-3-yl)methyl]pyridine-3-carboxamide], the IC50 under setting [1] is 9.75 µM. Still for that read-out and setting: the value for `Cc1ncc(CNC(=O)c2ccc(CNS(=O)(=O)c3ccc(F)c(Cl)c3)cn2)s1` [5-(3-chloro-4-fluorobenzenesulfon-amidomethyl)-N-[(2-methyl-1,3-thiazol-5-yl)methyl]pyridine-2-carboxamide] was 0.204 µM. In the case of `Cc1ncc(CNC(=O)c2ccc(CNS(=O)(=O)c3cccs3)cn2)s1` [N-[(2-methyl-1,3-thiazol-5-yl)methyl]-5-(thiophene-2-sulfonamidomethyl) pyridine-2-carboxamide], the IC50 under setting [1] was found to be 4.02 µM. As to `COc1ccc(CNC(=O)c2ccc(CNS(=O)(=O)c3ccc(F)c(Cl)c3)cn2)cn1` [5-(3-chloro-4-fluorobenzenesulfon-amidomethyl)-N-[(6-methoxypyridin-3-yl)methyl]pyridine-2-carboxamide], the IC50 under setting [1] was determined as 2 µM.

For `COc1cc(CNC(=O)c2cnc(CNS(=O)(=O)c3ccc(F)c(Cl)c3)cn2)ccn1` [5-(3-chloro-4-fluorobenzenesulfon-amidomethyl)-N-[(2-methoxypyridin-4-yl)methyl]pyrazine-2-carboxamide], the IC50 under setting [1] amounted to 0.85 µM. On the same count and under the same terms, the same measure for `Cc1ncc(CNC(=O)c2cnc(CNS(=O)(=O)c3cccc(Cl)c3)cn2)s1` [5-(3-chlorobenzenesulfon-amidomethyl)-N-[(2-methyl-1,3-thiazol-5-yl)methyl]pyrazine-2-carboxamide]: 0.839 µM. For the compound `Cc1nnc(CNC(=O)c2ccc(CNS(=O)(=O)c3ccc(F)c(Cl)c3)cn2)s1` [5-(3-chloro-4-fluorobenzenesulfon-amidomethyl)-N-[(5-methyl-1,3,4-thiadiazol-2-yl)methyl]pyridine-2-carboxamide], under setting [1], the IC50 worked out at 1.02 µM. Turning to `O=C(NCc1cnccn1)c1cnc(CNS(=O)(=O)c2ccc(F)c(Cl)c2)cn1` [5-(3-chloro-4-fluorobenzenesulfon-amidomethyl)-N-(pyrazin-2-ylmethyl)pyrazine-2-carboxamide], the IC50 under setting [1] amounted to 2.1 µM.

As for `C[C@@H](NC(=O)c1ccc(CNS(=O)(=O)c2ccc(F)c(Cl)c2)nc1)c1cncs1` [6-(3-chloro-4-fluorobenzenesulfon-amidomethyl)-N-[(1R)-1-(1,3-thiazol-5-yl)ethyl]pyridine-3-carboxamide], the IC50 under setting [1] is no less than 10 µM and the IC50 under setting [2] is greater than 10 µM. With `Cc1ncc(CNC(=O)c2cnc(CNS(=O)(=O)c3ccc(F)cc3)cn2)s1` [5-(4-fluorobenzenesulfon-amidomethyl)-N-[(2-methyl-1,3-thiazol-5-yl)methyl]pyrazine-2-carboxamide], under setting [1], the IC50 is 5.51 µM. As to `O=C(NCc1cnco1)c1ccc(CNS(=O)(=O)c2ccc(F)c(Cl)c2)cn1` [5-(3-chloro-4-fluorobenzenesulfon-amidomethyl)-N-(1,3-oxazol-5-ylmethyl)pyridine-2-carboxamide], under setting [1], the IC50 is 1.95 µM.

For the compound `O=C(NCc1cccnc1)c1cnc(CNS(=O)(=O)c2ccc(F)c(Cl)c2)cn1` [5-(3-chloro-4-fluorobenzenesulfon-amidomethyl)-N-(pyridin-3-ylmethyl)pyrazine-2-carboxamide], under setting [1], the IC50 is 0.439 µM. Still for that read-out and setting: the same measure for `O=C(NCc1ccno1)c1ccc(CNS(=O)(=O)c2ccc(F)c(Cl)c2)cn1` [5-(3-chloro-4-fluorobenzenesulfon-amidomethyl)-N-(1,2-oxazol-5-ylmethyl)pyridine-2-carboxamide]: 2.18 µM; for `Cc1ncc(CNC(=O)c2cnc(CNS(=O)(=O)c3cccc(Cl)c3)c(C)n2)s1` [5-(3-chlorobenzenesulfon-amidomethyl)-6-methyl-N-[(2-methyl-1,3-thiazol-5-yl)methyl]pyrazine-2-carboxamide]: 0.0395 µM. In the case of `Cn1ccnc1CNC(=O)c1ccc(CNS(=O)(=O)c2ccc(F)c(Cl)c2)nc1` [6-(3-chloro-4-fluorobenzenesulfon-amidomethyl)-N-[(l-methyl-1H-imidazol-2-yl)methyl]pyridine-3-carboxamide], under setting [1], the IC50 came out at 0.108 µM. The same measure, in the same setting: the value for `CC(NC(=O)c1ccc(CNS(=O)(=O)c2ccc(F)c(Cl)c2)cn1)c1cccs1` (stereo not shown) [5-(3-chloro-4-fluorobenzenesulfon-amidomethyl)-N-[1-(thiophen-2-yl)ethyl]pyridine-2-carboxamide] was 2.4 µM. Consider `Cn1cncc1CNC(=O)c1ccc(CNS(=O)(=O)c2ccc(F)c(Cl)c2)cn1` [5-(3-chloro-4-fluorobenzenesulfon-amidomethyl)-N-[(1-methyl-1H-imidazol-5-yl)methyl]pyridine-2-carboxamide], for which the IC50 under setting [1] is 8.36 µM. Still for that read-out and setting: the same measure for `O=C(NCc1cncnc1)c1cnc(CNS(=O)(=O)c2ccc(F)c(Cl)c2)cn1` [5-(3-chloro-4-fluorobenzenesulfon-amidomethyl)-N-(pyrimidin-5-ylmethyl)pyrazine-2-carboxamide]: 4.84 µM; for `Cc1nnc(CNC(=O)c2ccc(CNS(=O)(=O)c3ccc(F)c(Cl)c3)cn2)o1` [5-(3-chloro-4-fluorobenzenesulfon-amidomethyl)-N-[(5-methyl-1,3,4-oxadiazol-2-yl)methyl]pyridine-2-carboxamide]: 2.83 µM. As to `Cc1ccncc1CNC(=O)c1cnc(CNS(=O)(=O)c2ccc(F)c(Cl)c2)cn1` [5-(3-chloro-4-fluorobenzenesulfon-amidomethyl)-N-[(4-methylpyridin-3-yl)methyl]pyrazine-2-carboxamide], under setting [1], the IC50 is 0.108 µM.

Consider `Cc1ncc(CNC(=O)c2ccc(CNS(=O)(=O)c3ccc(F)c(F)c3)cn2)s1` [5-(3,4-difluorobenzenesulfon-amidomethyl)-N-[(2-methyl-1,3-thiazol-5-yl)methyl]pyridine-2-carboxamide], for which the IC50 under setting [1] turned out to be 0.219 µM. On the same count and under the same terms, the same measure for `Cn1cncc1CNC(=O)c1cnc(CNS(=O)(=O)c2ccc(F)c(Cl)c2)cn1` [5-(3-chloro-4-fluorobenzenesulfon-amidomethyl)-N-[(1-methyl-1H-imidazol-5-yl)methyl]pyrazine-2-carboxamide]: 8.95 µM; for `O=C(NCc1cncs1)c1cnc(CNS(=O)(=O)c2ccc(F)c(Cl)c2)cn1` [5-(3-chloro-4-fluorobenzenesulfon-amidomethyl)-N-(1,3-thiazol-5-ylmethyl)pyrazine-2-carboxamide]: 0.929 µM. `Cc1ncc(CNC(=O)c2ccc(CNS(=O)(=O)c3c(C)noc3C)cn2)s1`: the IC50 under setting [2] is greater than 10 µM. `Cc1ncc(CNC(=O)c2cnc(CNS(=O)(=O)c3cc(Cl)ccc3F)c(C)n2)s1` [5-(5-chloro-2-fluorobenzenesulfon-amidomethyl)-6-methyl-N-[(2-methyl-1,3-thiazol-5-yl)methyl]pyrazine-2-carboxamide]: the IC50 under setting [1] stood at 8.06 µM. As to `Cc1nnc(CNC(=O)c2cnc(CNS(=O)(=O)c3ccc(F)c(Cl)c3)cn2)o1` [5-(3-chloro-4-fluorobenzenesulfon-amidomethyl)-N-[(5-methyl-1,3,4-oxadiazol-2-yl)methyl]pyrazine-2-carboxamide], the IC50 under setting [1] is 2.43 µM.
